The subject of experiment [1] is Erysiphe cichoracearum. As to the kind of experiment: cucumber powdery mildew photostability test. The experiment is classed as in vivo. To be noted: Golovinomyces cichoracearum, 168 h, xenon arc 3500 foot candles 16 hours, 7 days. As to the method: (§1) Compounds of this invention are dissolved in acetone in an amount equal to 6% of the final volume and then suspended at a concentration of 20 ppm in purified water containing 25 ppm of the surfactant Alkanol® XC (sodium alkyl naphthalene sulfonate). This suspension is sprayed to the point of run-off in cucumber seedlings. When the foliage is dry, the plants are exposed to 3500 foot candles of light from a xenon arc source for a period of 16 hours. This light source approximates the spectrum of natural sunlight, and is used to assess photostability of the compounds of this invention on plant foliage. The following day, the plants are inoculated with a spore suspension of the fungus Erysiphe cichoracearum and incubated in a growth room for 7 days. Disease ratings are then made.

The test system of experiment [2] is Puccinia graminis var. tritici. As to the kind of experiment: whole plant or invertebrate. Format: in vivo. To be noted: 192 h, read-out: % control wheat rust in preventive test.
Experiment [3] concerns Puccinia graminis var. tritici. The experiment is described as follows: whole plant or invertebrate. Format: in vivo. As to conditions: 192 h, read-out: % control wheat rust in residual wash-off test.
For experiment [4], the system named is Erisyphe cichoracearum. The experiment is described as follows: cucumber powdery mildew curative test. Format: in vivo. To be noted: Cucumis sativus, 144 h, sprayed day after inoculation, additional 6 days. An excerpt:
Cucumber plants are inoculated with a spore suspension of the fungus Erisyphe cichoracearum and in a growth room overnight. The following day, the plants are sprayed to the point of run-off with a suspension prepared by dissolving compounds of this invention in acetone in an amount equal to 6% of the final volume and then suspended at a concentration of 20 ppm in purified water containing 25 ppm of the surfactant Alkanol® XC (sodium alkyl naphthalene sulfonate). Plants are returned to the growth room for an additional 6 days when disease ratings are then made. […] Phytotoxicity in the form of foliar burn or growth reduction was observed on some of the plants in association with disease control.

Experiment [5] concerns Venturia inaequalis. As to the kind of experiment: apple scab photostability test. The experiment is classed as in vivo. To be noted: xenon arc 3500 foot candles 16 hours, 10-12 days. As to the method: as §1, with “on apple” for “in cucumber”, “Venturia inaequalis” for “Erysiphe cichoracearum”, “10-12” for “7”, “made. […] Phytotoxicity in the form of foliar burn was observed on some of the plants in association with disease control.” for “made.”

The subject of experiment [6] is Rhizoctonia solani. As to the kind of experiment: Rhizoctonia solani infested soil test, cotton. Format: in vivo. As to conditions: 192 h, 1.5 kg/ha, 8 days. An excerpt:
Rhizoctonia solani-infested soil was placed in a 900 cc cup. Compounds of this invention were mixed at a rate of 1.5 kg/ha in a section 2" wide×2" deep×4" long to simulate an in-the-row application. Five cotton seeds were planted in the treated soil. After 8 days, the cotton plants were removed and rated for disease control.

The subject of experiment [7] is Phytophthora infestans. The experiment is described as follows: whole plant or invertebrate. The experiment is classed as in vivo. As to conditions: in Solanum lycopersicum, 96 h, read-out: % control tomato late blight in a photostability test.
Experiment [8] deals with Venturia inaequalis. The experiment is described as follows: apple scab residual wash-off test. To be noted: 1/2 inch simulated rainfall, 10-12 days. The experiment is classed as in vivo. How it is done: Compounds of this invention are dissolved in acetone in an amount equal to 6% of the final volume and then suspended at a concentration of 20 ppm in purified water containing 25 ppm of the surfactant Alkanol® XC (sodium alkyl naphthalene sulfonate). This suspension is sprayed to the point of run-off on apple seedlings. The following day, 1/2 inch of simulated rainfall is applied to the foliage of the plants. When the foliage is dry, the plants are inoculated with a spore suspension of the fungus Venturia inaequalis and incubated in a growth room for 10-12 days. Disease ratings are then made. […] Phytotoxicity in the form of foliar burn was observed on the plants in association with disease control.

For experiment [9], the system named is Puccinia graminis var. tritici. The experiment is described as follows: whole plant or invertebrate. To be noted: 192 h, read-out: % control wheat rust in a photostability test. The experiment is classed as in vivo.
For experiment [10], the system named is Erysiphe cichoracearum. As to the kind of experiment: cucumber powdery mildew residual wash-off test. Format: in vivo. As to conditions: Golovinomyces cichoracearum, 168 h, 1/2 inch simulated rainfall, 7 days. As to the method:
Compounds of this invention are dissolved in acetone in an amount equal to 6% of the final volume and then suspended at a concentration of 20 ppm in purified water containing 25 ppm of the surfactant Alkanol® XC (sodium alkyl naphthalene sulfonate). This suspension is sprayed to the point of run-off on cucumber seedlings. The following day, 1/2 inch of simulated rainfall is applied to the foliage of the plants. When the foliage is dry, the plants are inoculated with a spore suspension on the fungus Erysiphe cichoracearum and incubated in a growth room for 7 days. Disease ratings are then made.

For experiment [11], the system named is Sclerotinia sclerotiorum. As to the kind of experiment: white mold on carrot sections dip test. As to conditions: 100 ppm dip, 20° C., six days. How it is done: Surface-sterilized carrot sections were dipped two minutes in a 100 ppm solution of the compounds of this invention. Additional sections were dipped in a check solution which contained 500 ppm Alkanol® XC (sodium alkyl naphthalene sulfonate). After inoculation by placing a mycelial plug of Sclerotinia sclerotiorum on each carrot section, the test was held at 20° C. for six days.
The untreated carrot sections were completely invaded with the mycelial growth of white mold fungus, but the treated sections had little or no growth by this disease causing organism.

In experiment [12] the test system is Erysiphe cichoracearum. As to the kind of experiment: cucumber powdery mildew preventive test. The experiment is classed as in vivo. As to conditions: Golovinomyces cichoracearum, 168 h, 7 days. How it is done:
Compounds of this invention are dissolved in acetone in an amount equal to 6% of the final volume and then suspended at a concentration of 20 ppm in purified water containing 25 ppm of the surfactant Alkanol® XC (sodium alkyl naphthalene sulfonate). This suspension is sprayed to the point of run-off on cucumber seedlings. The following day, the plants are inoculated with a spore suspension of the fungus Erysiphe cichoracearum and incubated in a growth room for 7 days. Disease ratings are then made. […] Phytotoxicity in the form of foliar burn or growth reduction was observed on some of the plants in association with disease control.

The test system of experiment [13] is Eggs of the beet armyworm (Spodoptera exigua). The experiment is described as follows: beet armyworm egg (ovicidal) test, % eggs failing to hatch. The experiment is classed as in vivo. To be noted: 72 h, three days, read-out: % Control (% eggs failing to hatch); for mortality at 1 %: 1% in acetone. How it is done:
Eggs of the beet armyworm (Spodoptera exigua), laid on cellophane discs each containing 50-75 eggs, were placed in petri dishes and lightly sprayed with 1% concentrations of the indicated compounds in acetone solution. Three days later, percent control (% eggs failing to hatch) was determined.
Eggs of the beet armyworm (Spodoptera exigua), laid on cellophane discs each containing 50-75 eggs, were placed in petri dishes and lightly sprayed with 200 ppm concentration of the indicated compounds in acetone solution. Three days later, percent control (% eggs failing to hatch) was determined.

The source of these data is patent US4309425A (priority 1980, dated 1982).

Like-named read-outs stand apart in the source and are kept apart here.

As to `Cc1ccc(S(=O)(=O)N(C)SN(c2cc(C(F)(F)F)ccc2Cl)c2c([N+](=O)[O-])cc([N+](=O)[O-])cc2C(F)(F)F)cc1`, the pest or weed control at 20 ppm in [1] is 0%; in [2], 80%; in experiment [3] it was 100%; in [4], 100%; in experiment [5], 100%; in experiment [7] it was 50%. In addition, the pest or weed control at 20 ppm is 100% in [8], 40% in experiment [9], 92% in experiment [10] and 100% in experiment [12]. The molecule also registered a pest or weed control at 1500 g/ha in experiment [6] of 100%. Further, the “% control White Mold” value in [11] is on record as 100%. In addition, the mortality at 1 % in [13] turned out to be 100%.

For `CCCCN(SN(c1cc(C(F)(F)F)ccc1Cl)c1c([N+](=O)[O-])cc([N+](=O)[O-])cc1C(F)(F)F)S(=O)(=O)c1ccccc1C`, the pest or weed control at 20 ppm in experiment [1] turned out to be 100%; in [2], 100%; in [3] it was 100%; in experiment [4], 93%; in experiment [5], 80%; in [7], 90%. The pest or weed control at 20 ppm in [8] was 100%; in [9], 98%; in experiment [10] it was 100%; in [12], 100%. This molecule also registered a pest or weed control at 1500 g/ha in experiment [6] of 50%. Besides, in experiment [11], the “% control White Mold” value was 100%. Further, the mortality at 1 % in experiment [13] amounted to 100%.

With `CCCCN(SN(c1cc(C(F)(F)F)ccc1Cl)c1c([N+](=O)[O-])cc([N+](=O)[O-])cc1C(F)(F)F)S(=O)(=O)c1ccc(C)cc1`, the pest or weed control at 20 ppm in experiment [1] turned out to be 75%; in experiment [2] it was 100%; in [3] it was 100%; in experiment [4], 92%; in experiment [5] it was 0%; in [7], 95%. The pest or weed control at 20 ppm in experiment [8], in experiment [9], in experiment [10] and in experiment [12] was 100% each time. In [6], this molecule gave a pest or weed control at 1500 g/ha of 100%. Also, the “% control White Mold” value in [11] came out at 86%. Further, the mortality at 200 ppm in experiment [13] (200 ppm in acetone) came to 100%.
